Values of other authors as cited in publication PMC8491460 (Pharmacology Research & Perspectives, 2021).
Structures can show the parent of a compound that is named as a salt.

How the values were obtained:
[1] = tested on: patients with metastatic melanoma
[2] = tested on: patients with moderate to severe atopic dermatitis; details: 30 mg administered orally for 8 weeks
[3] = tested on: patients with advanced RCC; details: IFNα 3–6 MIU s.c. thrice/week, 800 mg cimetidine, 10 mg meloxicam, 4 mg candesartan or perindopril
[4] = tested on: Colorectal cancer patients; details: 8.8 or 1.2 g per day oral, admission to 10th postoperative day
[5] = tested on: patients with high‐grade non‐Hodgkin lymphoma; details: 3 MIU IFNα, 1.5 mg/kg IL‐2, and 0.5 mg histamine s.c. 1–2 times daily, 5 days a week
[6] = tested on: CD11b^+Gr1^+ immature myeloid cells; details: 0.8 mg/kg i.p. per day for 20 days
[7] = tested on: patients with metastatic RCC
murine EL4 lymphomas = details: 75 mg/kg i.p. three times a week for 2 weeks
[8] = clinical trials, adjuvant to IL‐2 immunotherapy
BN‐175 tumors = details: 40 µg melphalan, 1 mg histamine, and 50 µg IL‐2 in 5 ml perfusate
[9] = tested on: human 1205Lu melanoma tumor; details: 1 mg/kg daily s.c. for 30 days
[10] = tested on: breast cancer models E0771 and 4T1; details: 8 mg/kg in drinking water; E0771 and 4T1, respectively
rheumatoid arthritis [11] = details: phase IIb trial
[12] = tested on: uncontrolled, eosinophilic asthma; details: 30 mg per day for 24 weeks
[13] = tested on: patients with moderate‐to‐severe psoriasis; details: 30 and 60 mg per day
rheumatoid arthritis [14] = details: 100 mg once daily orally for 12 weeks, phase IIa
[15] = histamine 75 µg/mouse i.p., 100–240 µg/mouse of each antibody
[16] = histamine and anti‐PD‐1/anti‐PD‐L1
[17] = histamine 1500 µg/mouse with anti‐PD‐1/anti‐PD‐L1

## CN(C)/N=N/c1[nH]cnc1C(N)=O [Dacarbazine]
[1]
  overall response rates: 16%

## NCCc1c[nH]cn1 [HDC, histamine dihydrochloride]
NK cells
  ROS production by M4/M5 cells and apoptosis in adjacent NK cells: inhibited

## CN[C@@H]1CCN(c2cc(NCC3CC3)nc(N)n2)C1 [adriforant]
[2]
  eczema and severity: improved eczema and severity
  tolerability: well tolerated

## CN/C(=N/CCSCc1nc[nH]c1C)NC#N [cimetidine]
[3]
  responses: favorable responses
[4]
  CD19^+ B cells in blood samples: elevated levels

## NCCc1c[nH]cn1 [histamine, 2‐(4‐imidazolyl)‐ethylamine]
[5]
  frequency of cytokine‐producing T cells and NK‐cell‐mediated cytotoxicity: significant increases
[6]
  ability of immature myeloid cells to support the growth of tumor allografts: suppressed
[6]; through H1 receptor and H2 receptor
  differentiation of CD11b^+Gr1^+ immature myeloid cells: induced their terminal differentiation into monocytes and neutrophils
[7]; 1 mg HDC s.c. b.i.d. with IFNα 3 MIU and IL‐2 2.4 MIU/m^2
  tolerability: well tolerated
[7]; similar treatment scheme
  TILs, blood leukocyte count, f‐chain expression, or cytotoxicity: did not influence
Murine EL4 lymphomas; WT mice
  tumor‐infiltrating DCs: increased
Murine EL4 lymphomas; WT mice but not NOX2‐deficient mice
  growth of murine EL4 lymphomas: reduced
[8]
  tolerability: generally well tolerated
MC‐38 colon carcinoma; [15]
  anti‐tumor efficacy of immune checkpoint blockade with anti‐PD‐1/anti‐PD‐L1: improved
MC‐38 colon carcinoma; histamine 1500 µg/mouse i.p. 3 times a week and anti‐PD‐1/anti‐PD‐L1
  MC‐38 tumor growth: strongly reduced
MC‐38 colon carcinoma; [16]
  fraction of CD8^+ T cells with an effector phenotype: raised significantly
  fraction of intra‐tumoral CD8^+ T cells: tending to increase
  intra‐tumoral NK cells: decreased
  percentage of intra‐tumoral CD4^+ T cells: not altered
EL4 lymphoma; 75 µg/mouse i.p. three times a week
  accumulation and immunosuppressive features of MDSCs: diminished
EL4 lymphoma; 75 µg/mouse i.p. three times a week starting 1 day before tumor inoculation
  tumor growth: diminished tumor growth
EL4 lymphoma; EL4 tumor‐bearing mice, histamine
  expression of PD‐L1 on MDSCs or PD‐1 on CD8^+ T cells: did not alter
EL4 lymphoma; [15]
  anti‐tumor efficacy of immune checkpoint blockade with anti‐PD‐1/anti‐PD‐L1: improved
EL4 lymphoma; [17]
  fraction of CD8^+ T cells displaying an effector phenotype: slightly increased
  intra‐tumoral proportion of MDSCs, or T and NK cells: did not affect
BN‐175 tumors
  response: no improved response
[9]
  neutrophil‐to‐lymphocyte ratio infiltrate: decreased
  tumor growth and neovascular formation: reduced

## CNC(=C[N+](=O)[O-])NCCSCc1ccc(CN(C)C)o1 [ranitidine]
[10]
  primary tumor growth and metastasis: consistently reduced

## Cc1cc(C)c2nc(-c3cnc(NCCCC4CCN(C)CC4)nc3C)[nH]c2c1 [toreforant]
Rheumatoid arthritis [11]
  confirmation of the reduction of signs and symptoms: could not be confirmed
[12]
  improvement of uncontrolled, eosinophilic asthma: failed to improve
[13]
  response versus placebo: greater response than placebo
Rheumatoid arthritis [14]
  signs and symptoms of rheumatoid arthritis: reduced

## IL‐2: interleukin‐2 immunotherapeutic cytokine
[1]
  overall response rates: 16%
